Data taken from the NIST ThermoML archive (doi:10.1021/je030136n).

Test: xn = mol fraction of the nth substance listed
Settings: Liquid, Pulse-echo method

CCCCCCC [heptane] + CCCO
Settings	speed of sound [m/s]
313.15 K, 100 kPa, x2 = 0.1008	1061
313.15 K, 100 kPa, x2 = 0.4992	1074.8
313.15 K, 30400 kPa, x2 = 0.1008	1267.9
313.15 K, 45590 kPa, x2 = 0.4992	1349.9
313.15 K, 60790 kPa, x2 = 0.3008	1416.4
313.15 K, 75990 kPa, x2 = 0.4992	1481.4
313.15 K, 75990 kPa, x2 = 0.7016	1486.3
313.15 K, 91190 kPa, x2 = 0.3008	1539.3
313.15 K, 91190 kPa, x2 = 0.4992	1539.3
313.15 K, 101320 kPa, x2 = 0.4992	1575.5
313.15 K, 111450 kPa, x2 = 0.3008	1611.5
313.15 K, 121580 kPa, x2 = 0.3008	1645.1
313.16 K, 30400 kPa, x2 = 0.7986	1293.2
313.16 K, 91190 kPa, x2 = 0.1008	1543.3
313.16 K, 101320 kPa, x2 = 0.3008	1576.2
313.16 K, 121580 kPa, x2 = 0.4992	1643.3
313.17 K, 100 kPa, x2 = 0.3008	1065
313.17 K, 30400 kPa, x2 = 0.3008	1268.1
313.17 K, 75990 kPa, x2 = 0.3008	1480.3
313.17 K, 111450 kPa, x2 = 0.4992	1610.1
313.17 K, 111450 kPa, x2 = 0.6027	1610
313.17 K, 121580 kPa, x2 = 0.6027	1642.9
313.19 K, 101320 kPa, x2 = 0.1008	1580.6
313.19 K, 111450 kPa, x2 = 0.1008	1616.3
313.19 K, 121580 kPa, x2 = 0.1008	1649.7
313.2 K, 111450 kPa, x2 = 0	1622
313.2 K, 111450 kPa, x2 = 0.7016	1611.6
313.21 K, 101320 kPa, x2 = 0	1586.2
313.22 K, 45590 kPa, x2 = 0.7016	1358.4
313.22 K, 121580 kPa, x2 = 0.7016	1643.9
313.23 K, 30400 kPa, x2 = 0.7016	1284.3
313.23 K, 60790 kPa, x2 = 0.7016	1425.1
313.24 K, 100 kPa, x2 = 0.7016	1095.2
318.08 K, 100 kPa, x2 = 0.7986	1090.8
318.09 K, 75990 kPa, x2 = 0	1475.5
318.09 K, 121580 kPa, x2 = 0.7016	1632.8
318.11 K, 101320 kPa, x2 = 0.7986	1569.1
318.12 K, 45590 kPa, x2 = 0.7986	1351.4
318.12 K, 60790 kPa, x2 = 0.4992	1404.4
318.13 K, 100 kPa, x2 = 0.4992	1054.3
318.13 K, 30400 kPa, x2 = 0.7986	1277.9
318.13 K, 45590 kPa, x2 = 0.4992	1334.8
318.13 K, 111450 kPa, x2 = 0.7986	1602.7
318.13 K, 121580 kPa, x2 = 0.4992	1631.5
318.14 K, 100 kPa, x2 = 0.7016	1076.2
318.14 K, 30400 kPa, x2 = 0.4992	1256.9
318.14 K, 75990 kPa, x2 = 0.7986	1478
318.14 K, 121580 kPa, x2 = 0.7986	1634.8
318.15 K, 30400 kPa, x2 = 0.7016	1268.9
318.15 K, 45590 kPa, x2 = 0.7016	1344.1
318.15 K, 60790 kPa, x2 = 0.6027	1406.9
318.15 K, 60790 kPa, x2 = 0.7016	1411.6
318.15 K, 60790 kPa, x2 = 0.7986	1417.5
318.15 K, 75990 kPa, x2 = 0.1008	1469.4
318.15 K, 91190 kPa, x2 = 0	1535.7
318.15 K, 111450 kPa, x2 = 0.4992	1598
318.16 K, 45590 kPa, x2 = 0.6027	1338.2
318.16 K, 91190 kPa, x2 = 0.7016	1530.2
318.16 K, 91190 kPa, x2 = 0.7986	1533.9
318.16 K, 101320 kPa, x2 = 0.4992	1563
318.16 K, 101320 kPa, x2 = 0.7016	1565.9
318.17 K, 45590 kPa, x2 = 0	1337.4
318.17 K, 60790 kPa, x2 = 0	1409.6
318.17 K, 60790 kPa, x2 = 0.1008	1403.9
318.17 K, 75990 kPa, x2 = 0.7016	1473.2
318.17 K, 91190 kPa, x2 = 0.3008	1526.1
318.17 K, 91190 kPa, x2 = 0.4992	1526.3
318.17 K, 101320 kPa, x2 = 0.1008	1567.7
318.17 K, 111450 kPa, x2 = 0.1008	1603.7
318.17 K, 111450 kPa, x2 = 0.3008	1599
318.17 K, 111450 kPa, x2 = 0.7016	1600
318.17 K, 121580 kPa, x2 = 0	1644.3
318.17 K, 121580 kPa, x2 = 0.1008	1637
318.17 K, 121580 kPa, x2 = 0.3008	1633
318.18 K, 100 kPa, x2 = 0	1044.5
318.18 K, 100 kPa, x2 = 0.1008	1039.7
318.18 K, 15200 kPa, x2 = 0	1163.4
318.18 K, 15200 kPa, x2 = 0.1008	1157.8
318.18 K, 30400 kPa, x2 = 0	1256.5
318.18 K, 75990 kPa, x2 = 0.3008	1466.5
318.18 K, 75990 kPa, x2 = 0.4992	1467.8
318.18 K, 101320 kPa, x2 = 0	1573.6
318.18 K, 101320 kPa, x2 = 0.3008	1563.3
318.18 K, 111450 kPa, x2 = 0	1609.8
318.18 K, 121580 kPa, x2 = 0.6027	1631.3
318.19 K, 30400 kPa, x2 = 0.3008	1251.4
318.19 K, 45590 kPa, x2 = 0.1008	1331.6
318.19 K, 45590 kPa, x2 = 0.3008	1330.8
318.19 K, 60790 kPa, x2 = 0.3008	1401.9
318.2 K, 100 kPa, x2 = 0.6027	1063.5
318.2 K, 30400 kPa, x2 = 0.1008	1250.7
318.2 K, 101320 kPa, x2 = 0.6027	1563.5
318.21 K, 100 kPa, x2 = 0.3008	1043.8
318.21 K, 91190 kPa, x2 = 0.6027	1527.2
318.23 K, 30400 kPa, x2 = 0.6027	1261.4
318.23 K, 111450 kPa, x2 = 0.6027	1598
318.27 K, 75990 kPa, x2 = 0.6027	1469.2
